Test results taken from patent US12590131B2, “Antimicrobial peptides with alpha-core helices” (priority 2017, dated 2026).

System: panel of prototypic gram-positive (S. aureus), gram-negative (S. typhimurium, P. aeruginosa, A. baumannii) and fungal (C. albicans) pathogens
Test: Radial diffusion assay for microbicidal activity, whole pathogen panel
Format: cell-based
Conditions: 10 μg peptide
Method: Select candidate microbicidal peptides were commercially synthesized by BioMatik (Biomatik USA, Wilmington, Delaware). Lyophilized peptides were reconstituted with ddIH20 and stored in aliquots at −20° C. LL-37 (Peptides International, Louisville, KY), a prototypic human AHAP, was used as a comparator in microbicidal assays.
Putative antimicrobial peptides were assayed for microbicidal activity using a well-established radial diffusion method modified to pH 5.5 or 7.5. A panel of microorganisms was tested: Gram-positive Staphylococcus aureus (ISP 479C, ISP 479R); Gram-negative Salmonella typhimurium (MS 5996s, MS 14028), Pseudomonas aeruginosa (PA01), Acinetobacter baumanni (19606) and the fungus Candida albicans (36082S, 36082R). Logarithmic phase organisms were inoculated (10^6 CFU/ml) into buffered agarose, and poured into plates. Peptides (10 μg) were introduced into wells in the seeded matrix, and incubated for 3 h at 37° C. Nutrient overlay medium was applied, and assays incubated at 37° C. or 30° C. for bacteria or fungi, respectively. After 24h, zones of inhibition were measured. Independent experiments were repeated a minimum of two times.

| Substance | relative potency at pH 7.5 versus pH 5.5 | microbicidal activity (zones of inhibition) (pH 7.5 and pH 5.5, FIG. 9) | microbicidal activity (zones of inhibition) (pH 5.5) | microbicidal activity (zones of inhibition) (pH 7.5) |
| --- | --- | --- | --- | --- |
| bIFN-γ (KAISELYNVITELSKSNSKMRKRRQNLFRGWKASK) | somewhat more potent at pH 7.5 than 5.5 | significant activity against most organisms | – | – |
| hIFN-γ (AIHELIQVMAELSPAAKTGKRKRSQMLFRGRRASQ) | somewhat more potent at pH 7.5 than 5.5 | significant activity against most organisms | – | – |
| hIL7 (LCFLKRLLQEIKTCWNKILMGTKEH) | – | – | retained significant activity | somewhat less potent |
| hIL-13 (EVAQFVKDLLLHLKKLFREGRFN) | – | – | retained significant activity | somewhat less potent |
| hIL-21 (KEFLERFKSLLQKMIHQHLSSRTHGSEDS) | – | – | retained significant activity | somewhat less potent |
| tIL-5 (KRFIEKLRTFLRKLSRGAK) | – | markedly potent against all organisms | – | – |
